The values below come from US20080004177A1, “Novel Copper-Containing Formulations” (priority 2003, published 2008).

For this assay, the system named is Septoria tritici. Nature of the assay: Growth assay with Septoria tritici as indicator fungus (photometric). It counts as cell-based. The settings on record: active ingredient concentration in the spray mixture 1 ppm. The protocol:
A growth assay was carried out with Septoria tritici as indicator fungus. The fungal growth was measured photometrically by the increase in absorption or light scattering as a function of mycelium density. The data obtained were converted into percent growth inhibition, the absorption of the untreated controls being defined as 0% inhibition and that of a killed spore suspension as reference as 100% inhibition.
The expected efficacies of combinations of active ingredients were determined using Colby's formula (Colby, S. R. (Calculating synergistic and antagonistic responses of herbicide combinations”, Weeds, 15, pp. 20-22, 1967)) and compared with the observed efficacies.
E=x+y−x·y/100 • E expected efficacy, expressed in % of the untreated control, when using the mixture of the active ingredients A and B at the concentrations a and b • x efficacy, expressed in % of the untreated control, when using the active ingredient A at the concentration a • y efficacy, expressed in % of the untreated control, when using the active ingredient B at the concentration b

As to `COC(=O)N(OC)c1ccccc1COc1ccn(-c2ccc(Cl)cc2)n1` [II, Pyraclostrobin], the Growth inhibition was 57%.
